According to patent US6479435B1, “Diaryl ethers and processes for their preparation and herbicidal and desiccant compositions containing them” (ISK Americas Incorporated, priority 1997, dated 2002):

How the values were obtained:
Type in all cases: in vivo
[1] = test system: Johnsongrass (Sorghum halepense, SORHA); assay: Pre-emerge greenhouse herbicide test, phytotoxicity rating; settings: 14 days after application, rating scale 0-100
In short: (§1)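 Visual 0–100 injury rating (100 = all plants dead) taken 14 days after treatment. Rates of 125–1000 g ai/ha in acetone, 187 l/ha, were sprayed onto soil one day post-sowing; pots were surface-watered to incorporate, then bottom-watered.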

[2] = test system: ivyleaf morningglory (Ipomoea hederacea, IPOHE); assay: as above; settings: 14 days after application, rating scale 0-100
In short: as §1

[3] = test system: velvetleaf (Abutilon theophrasti, ABUTH); assay: as above; settings: 14 days after application, rating scale 0-100
In short: as §1

[4] = test system: common ragweed (Ambrosia artemisiifolia L., AMBEL); assay: as above; settings: 14 days after application, rating scale 0-100
In short: as §1

[5] = test system: redroot pigweed (Amaranthus retroflexus, AMARE); assay: as above; settings: 14 days after application, rating scale 0-100
In short: as §1

[6] = test system: green foxtail (Setaria viridis, SETVI); assay: as above; settings: 14 days after application, rating scale 0-100
In short: as §1

[7] = test system: barnyardgrass (Echinochloa crusgalli, ECHCG); assay: as above; settings: 14 days after application, rating scale 0-100
In short: as §1

[8] = test system: sicklepod (Cassia obtusifolia, CASOB); assay: as above; settings: 14 days after application, rating scale 0-100
In short: as §1

[9] = test system: large crabgrass (Digitaria sanguinalis, DIGSA); assay: as above; settings: 14 days after application, rating scale 0-100
In short: as §1

[10] = test system: lambsquarters (Chenopodium album, CHEAL); assay: as above; settings: 14 days after application, rating scale 0-100
In short: as §1

[11] = test system: common ragweed (Ambrosia artemisiifolia L., AMBEL); assay: Post-emerge greenhouse herbicide test, phytotoxicity rating; settings: 14 days after application, scale 0-100
In short: (§2)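 Scores use a 0 (no damage) to 100 (complete kill) scale, taken 14 days after a foliar spray. Acetone solutions with 0.25% v/v non-ionic surfactant were applied by track sprayer at 187 l/ha and 63-1000 g ai/ha to bottom-watered 2-3 leaf plants.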

[12] = test system: soybean (Glycine max L., var. Pella 86, SOY); assay: Pre-emerge greenhouse test, crop damage rating; parameters: key to SOY crop damage rating: 0 = no damage, 100 = complete death of all plants; settings: 14 days after application, rating scale 0-100
In short: as §1

[13] = test system: upland rice (Oryza sp., var.Tebonnet, RICE); assay: Pre-emerge greenhouse test, crop damage rating; settings: 14 days after application, rating scale 0-100
In short: as §1

[14] = test system: field corn (Zea mays L., var. Dekalb 535, CORN); assay: Pre-emerge greenhouse test, crop damage rating; settings: 14 days after application, rating scale 0-100
In short: as §1

[15] = test system: soybean (Glycine max L., var. Pella 86, SOY); assay: Post-emerge greenhouse test, crop damage rating; parameters: key to crop damage rating SOY: 0-100 scale: 0 = no damage, 100 = complete death of all plants; settings: 14 days after application, scale 0-100
In short: as §2

[16] = test system: upland rice (Oryza sp., var.Tebonnet, RICE); assay: Post-emerge greenhouse test, crop damage rating; settings: 14 days after application, scale 0-100
In short: as §2

[17] = test system: field corn (Zea mays L., var. Dekalb 535, CORN); assay: Post-emerge greenhouse test, crop damage rating; settings: 14 days after application, scale 0-100
In short: as §2

[18] = test system: Johnsongrass (Sorghum halepense, SORHA); assay: Post-emerge greenhouse herbicide test, phytotoxicity rating; settings: 14 days after application, scale 0-100
In short: as §2

[19] = test system: ivyleaf morningglory (Ipomoea hederacea, IPOHE); assay: as above; settings: 14 days after application, scale 0-100
In short: as §2

[20] = test system: velvetleaf (Abutilon theophrasti, ABUTH); assay: as above; settings: 14 days after application, scale 0-100
In short: as §2

[21] = test system: redroot pigweed (Amaranthus retroflexus, AMARE); assay: as above; settings: 14 days after application, scale 0-100
In short: as §2

[22] = test system: green foxtail (Setaria viridis, SETVI); assay: as above; settings: 14 days after application, scale 0-100
In short: as §2

[23] = test system: barnyardgrass (Echinochloa crusgalli, ECHCG); assay: as above; settings: 14 days after application, scale 0-100
In short: as §2

[24] = test system: large crabgrass (Digitaria sanguinalis, DIGSA); assay: as above; settings: 14 days after application, scale 0-100
In short: as §2

[25] = test system: lambsquarters (Chenopodium album, CHEAL); assay: as above; settings: 14 days after application, scale 0-100
In short: as §2

## O=c1n(-c2cc(Oc3ccccn3)c(Cl)cc2F)c(=S)n2n1CCCC2 [Compound 8-17]
[1]; Rate 125 g al/ha
  SORHA phytotoxicity rating: 50
[1]; Rate 500 g al/ha
  SORHA phytotoxicity rating: 100
[2]; Rate 125 g al/ha
  IPOHE phytotoxicity rating: 80
[2]; Rate 500 g al/ha
  IPOHE phytotoxicity rating: 99
[3]; Rate 125 g al/ha
  ABUTH phytotoxicity rating: 100
[3]; Rate 500 g al/ha
  ABUTH phytotoxicity rating: 100
[4]; Rate 125 g al/ha
  AMBEL phytotoxicity rating: 100
[4]; Rate 500 g al/ha
  AMBEL phytotoxicity rating: 100
[5]; Rate 125 g al/ha
  AMARE phytotoxicity rating: 100
[5]; Rate 500 g al/ha
  AMARE phytotoxicity rating: 100
[6]; Rate 125 g al/ha
  SETVI phytotoxicity rating: 100
[6]; Rate 500 g al/ha
  SETVI phytotoxicity rating: 100
[7]; Rate 125 g al/ha
  ECHCG phytotoxicity rating: 85
[7]; Rate 500 g al/ha
  ECHCG phytotoxicity rating: 100
[8]; Rate 125 g al/ha
  CASOB phytotoxicity rating: 100
[8]; Rate 500 g al/ha
  CASOB phytotoxicity rating: 80
[9]; Rate 125 g al/ha
  DIGSA phytotoxicity rating: 100
[9]; Rate 500 g al/ha
  DIGSA phytotoxicity rating: 100
[10]; Rate 125 g al/ha
  CHEAL phytotoxicity rating: 100
[10]; Rate 500 g al/ha
  CHEAL phytotoxicity rating: 100
[11]; rate 63 g ai/ha
  phytotoxicity rating AMBEL: 60
[11]; rate 500 g ai/ha
  phytotoxicity rating AMBEL: 100
[12]; Rate 125 g al/ha
  SOY crop damage rating: 0
[12]; Rate 500 g al/ha
  SOY crop damage rating: 95
[13]; Rate 125 g al/ha
  RICE crop damage rating: 50
[13]; Rate 500 g al/ha
  RICE crop damage rating: 95
[14]; Rate 125 g al/ha
  CORN crop damage rating: 10
[14]; Rate 500 g al/ha
  CORN crop damage rating: 30
[15]; rate 63 g ai/ha
  crop damage rating SOY: 90
[15]; rate 500 g ai/ha
  crop damage rating SOY: 100
[16]; rate 63 g ai/ha
  crop damage rating RICE: 40
[16]; rate 500 g ai/ha
  crop damage rating RICE: 90
[17]; rate 63 g ai/ha
  crop damage rating CORN: 20
[17]; rate 500 g ai/ha
  crop damage rating CORN: 10
[18]; rate 63 g ai/ha
  phytotoxicity rating SORHA: 50
[18]; rate 500 g ai/ha
  phytotoxicity rating SORHA: 100
[19]; rate 63 g ai/ha
  phytotoxicity rating IPOHE: 100
[19]; rate 500 g ai/ha
  phytotoxicity rating IPOHE: 100
[20]; rate 63 g ai/ha
  phytotoxicity rating ABUTH: 100
[20]; rate 500 g ai/ha
  phytotoxicity rating ABUTH: 100
[21]; rate 63 g ai/ha
  phytotoxicity rating AMARE: 100
[21]; rate 500 g ai/ha
  phytotoxicity rating AMARE: 100
[22]; rate 63 g ai/ha
  phytotoxicity rating SETVI: 50
[22]; rate 500 g ai/ha
  phytotoxicity rating SETVI: 90
[23]; rate 63 g ai/ha
  phytotoxicity rating ECHCG: 90
[23]; rate 500 g ai/ha
  phytotoxicity rating ECHCG: 100
[24]; rate 63 g ai/ha
  phytotoxicity rating DIGSA: 50
[24]; rate 500 g ai/ha
  phytotoxicity rating DIGSA: 90
[25]; rate 63 g ai/ha
  phytotoxicity rating CHEAL: 99
[25]; rate 500 g ai/ha
  phytotoxicity rating CHEAL: 100

## CS(=O)(=O)c1cccnc1Oc1cc(-n2c(=O)n3n(c2=S)CCCC3)c(F)cc1Cl [Compound 8-21]
[1]; Rate 125 g al/ha
  SORHA phytotoxicity rating: 50
[1]; Rate 500 g al/ha
  SORHA phytotoxicity rating: 100
[2]; Rate 125 g al/ha
  IPOHE phytotoxicity rating: 90
[2]; Rate 500 g al/ha
  IPOHE phytotoxicity rating: 100
[3]; Rate 125 g al/ha
  ABUTH phytotoxicity rating: 100
[3]; Rate 500 g al/ha
  ABUTH phytotoxicity rating: 100
[4]; Rate 125 g al/ha
  AMBEL phytotoxicity rating: 70
[4]; Rate 500 g al/ha
  AMBEL phytotoxicity rating: 90
[5]; Rate 125 g al/ha
  AMARE phytotoxicity rating: 100
[5]; Rate 500 g al/ha
  AMARE phytotoxicity rating: 100
[6]; Rate 125 g al/ha
  SETVI phytotoxicity rating: 99
[6]; Rate 500 g al/ha
  SETVI phytotoxicity rating: 100
[7]; Rate 125 g al/ha
  ECHCG phytotoxicity rating: 40
[7]; Rate 500 g al/ha
  ECHCG phytotoxicity rating: 90
[8]; Rate 125 g al/ha
  CASOB phytotoxicity rating: 70
[8]; Rate 500 g al/ha
  CASOB phytotoxicity rating: 100
[9]; Rate 125 g al/ha
  DIGSA phytotoxicity rating: 70
[9]; Rate 500 g al/ha
  DIGSA phytotoxicity rating: 100
[10]; Rate 125 g al/ha
  CHEAL phytotoxicity rating: 100
[10]; Rate 500 g al/ha
  CHEAL phytotoxicity rating: 100
[11]; rate 63 g ai/ha
  phytotoxicity rating AMBEL: 60
[11]; rate 500 g ai/ha
  phytotoxicity rating AMBEL: 90
[12]; Rate 125 g al/ha
  SOY crop damage rating: 0
[12]; Rate 500 g al/ha
  SOY crop damage rating: 80
[13]; Rate 125 g al/ha
  RICE crop damage rating: 40
[13]; Rate 500 g al/ha
  RICE crop damage rating: 95
[14]; Rate 125 g al/ha
  CORN crop damage rating: 0
[14]; Rate 500 g al/ha
  CORN crop damage rating: 10
[15]; rate 63 g ai/ha
  crop damage rating SOY: 90
[15]; rate 500 g ai/ha
  crop damage rating SOY: 100
[16]; rate 63 g ai/ha
  crop damage rating RICE: 50
[16]; rate 500 g ai/ha
  crop damage rating RICE: 60
[17]; rate 63 g ai/ha
  crop damage rating CORN: 10
[17]; rate 500 g ai/ha
  crop damage rating CORN: 0
[18]; rate 63 g ai/ha
  phytotoxicity rating SORHA: 10
[18]; rate 500 g ai/ha
  phytotoxicity rating SORHA: 70
[19]; rate 63 g ai/ha
  phytotoxicity rating IPOHE: 90
[19]; rate 500 g ai/ha
  phytotoxicity rating IPOHE: 100
[20]; rate 63 g ai/ha
  phytotoxicity rating ABUTH: 100
[20]; rate 500 g ai/ha
  phytotoxicity rating ABUTH: 100
[21]; rate 63 g ai/ha
  phytotoxicity rating AMARE: 100
[21]; rate 500 g ai/ha
  phytotoxicity rating AMARE: 100
[22]; rate 63 g ai/ha
  phytotoxicity rating SETVI: 0
[22]; rate 500 g ai/ha
  phytotoxicity rating SETVI: 40
[23]; rate 63 g ai/ha
  phytotoxicity rating ECHCG: 0
[23]; rate 500 g ai/ha
  phytotoxicity rating ECHCG: 70
[24]; rate 63 g ai/ha
  phytotoxicity rating DIGSA: 0
[24]; rate 500 g ai/ha
  phytotoxicity rating DIGSA: 60
[25]; rate 63 g ai/ha
  phytotoxicity rating CHEAL: 99
[25]; rate 500 g ai/ha
  phytotoxicity rating CHEAL: 100
